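1) Cells in 96-well plates. 2) Compound, 48 h, 5 concentrations. 3) Linear interpolation between surrounding doses. 4) Unreached endpoint = highest concentration. Here, GI50 denotes the concentration required for 50% inhibition of growth. TGI denotes the concentration required for complete inhibition of growth.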
tested on: ACHN renal; assay: inhibition of tumour cell growth, NCI panel, 48 h

Row | Compound | GI50 [nM] | TGI [nM]
1 | CCc1ccc2c(c1)N(CCO)C1=C(C(=O)OC1)C2c1cc(OC)c(OC)c(OC)c1 (stereo not given) | 389 | > 50000
2 | Cc1ccc(C2CC(c3ccc(Nc4ccnc5cc(Cl)ccc45)cc3)=NN2C=O)cc1 (stereo not given) | 3270 | > 100000
3 | COCC(C(=O)OC1C/C=C/C=C/C(=O)OC(C(C)C(O)C(C)CCC(OC(=O)C(C)N(C)C)C(C)C(OC(C)=O)C(C)/C=C/N(C)C=O)C/C=C/C(OC)CC(C)C/C=C(\C)C(OC)CCC(C)C(O)C1C)N(C)C (stereo not given) | 0.173 | > 393

tested on: NCI/ADR-RES ovarian; assay: inhibition of tumour cell growth, NCI panel, 48 h

Row | Compound | GI50 [nM] | TGI [nM]
4 | CCc1ccc2c(c1)N(CCO)C1=C(C(=O)OC1)C2c1cc(OC)c(OC)c(OC)c1 (stereo not given) | 974 | 6650
5 | Cc1ccc(C2CC(c3ccc(Nc4ccnc5cc(Cl)ccc45)cc3)=NN2C=O)cc1 (stereo not given) | 5220 | > 100000
6 | COCC(C(=O)OC1C/C=C/C=C/C(=O)OC(C(C)C(O)C(C)CCC(OC(=O)C(C)N(C)C)C(C)C(OC(C)=O)C(C)/C=C/N(C)C=O)C/C=C/C(OC)CC(C)C/C=C(\C)C(OC)CCC(C)C(O)C1C)N(C)C (stereo not given) | < 0.1 | 0.552

tested on: HS 578T breast; assay: inhibition of tumour cell growth, NCI panel, 48 h

Row | Compound | GI50 | TGI [nM]
7 | Nc1nccc2c([N+](=O)[O-])cccc12 | 52 µg/mL | –
8 | CCc1ccc2c(c1)N(CCO)C1=C(C(=O)OC1)C2c1cc(OC)c(OC)c(OC)c1 (stereo not given) | 218 nM | > 50000
9 | COCC(C(=O)OC1C/C=C/C=C/C(=O)OC(C(C)C(O)C(C)CCC(OC(=O)C(C)N(C)C)C(C)C(OC(C)=O)C(C)/C=C/N(C)C=O)C/C=C/C(OC)CC(C)C/C=C(\C)C(OC)CCC(C)C(O)C1C)N(C)C (stereo not given) | < 0.1 nM | < 0.1

tested on: NCI-H460 lung; assay: inhibition of tumour cell growth, NCI panel, 48 h

Row | Compound | GI50 [nM] | TGI [nM]
10 | CCc1ccc2c(c1)N(CCO)C1=C(C(=O)OC1)C2c1cc(OC)c(OC)c(OC)c1 (stereo not given) | 178 | 7620
11 | Cc1ccc(C2CC(c3ccc(Nc4ccnc5cc(Cl)ccc45)cc3)=NN2C=O)cc1 (stereo not given) | > 100000 | > 100000
12 | COCC(C(=O)OC1C/C=C/C=C/C(=O)OC(C(C)C(O)C(C)CCC(OC(=O)C(C)N(C)C)C(C)C(OC(C)=O)C(C)/C=C/N(C)C=O)C/C=C/C(OC)CC(C)C/C=C(\C)C(OC)CCC(C)C(O)C1C)N(C)C (stereo not given) | < 0.1 | 4.36

tested on: HCC-2998 colon; assay: inhibition of tumour cell growth, NCI panel, 48 h

Row | Compound | GI50 [nM] | TGI [nM]
13 | Cn1cnnc1[S-].[Au+].c1ccc([PH+](c2ccccc2)c2ccccc2)cc1 | 1800 | 3230
14 | CCc1ccc2c(c1)N(CCO)C1=C(C(=O)OC1)C2c1cc(OC)c(OC)c(OC)c1 (stereo not given) | 327 | > 10300
15 | Cc1ccc(C2CC(c3ccc(Nc4ccnc5cc(Cl)ccc45)cc3)=NN2C=O)cc1 (stereo not given) | 7440 | > 100000
16 | COCC(C(=O)OC1C/C=C/C=C/C(=O)OC(C(C)C(O)C(C)CCC(OC(=O)C(C)N(C)C)C(C)C(OC(C)=O)C(C)/C=C/N(C)C=O)C/C=C/C(OC)CC(C)C/C=C(\C)C(OC)CCC(C)C(O)C1C)N(C)C (stereo not given) | < 0.1 | 237

tested on: SK-MEL-2 melanoma; assay: inhibition of tumour cell growth, NCI panel, 48 h

Row | Compound | GI50 [nM] | TGI [nM]
17 | Cn1cnnc1[S-].[Au+].c1ccc([PH+](c2ccccc2)c2ccccc2)cc1 | 1600 | 3170
18 | CCc1ccc2c(c1)N(CCO)C1=C(C(=O)OC1)C2c1cc(OC)c(OC)c(OC)c1 (stereo not given) | 143 | 469
19 | COCC(C(=O)OC1C/C=C/C=C/C(=O)OC(C(C)C(O)C(C)CCC(OC(=O)C(C)N(C)C)C(C)C(OC(C)=O)C(C)/C=C/N(C)C=O)C/C=C/C(OC)CC(C)C/C=C(\C)C(OC)CCC(C)C(O)C1C)N(C)C (stereo not given) | < 0.1 | 7.74

tested on: EKVX NSCLC; assay: inhibition of tumour cell growth, NCI panel, 48 h

Row | Compound | GI50 | TGI
20 | Nc1nccc2c([N+](=O)[O-])cccc12 | 5.93 µg/mL | 48.8 µg/mL
21 | CCc1ccc2c(c1)N(CCO)C1=C(C(=O)OC1)C2c1cc(OC)c(OC)c(OC)c1 (stereo not given) | 1170 nM | > 50000 nM
22 | COCC(C(=O)OC1C/C=C/C=C/C(=O)OC(C(C)C(O)C(C)CCC(OC(=O)C(C)N(C)C)C(C)C(OC(C)=O)C(C)/C=C/N(C)C=O)C/C=C/C(OC)CC(C)C/C=C(\C)C(OC)CCC(C)C(O)C1C)N(C)C (stereo not given) | < 0.1 nM | 27.5 nM

tested on: HCT-116 colon; assay: inhibition of tumour cell growth, NCI panel, 48 h

Row | Compound | GI50 | TGI [nM]
23 | Cn1cnnc1[S-].[Au+].c1ccc([PH+](c2ccccc2)c2ccccc2)cc1 | 1720 nM | 3260
24 | Nc1nccc2c([N+](=O)[O-])cccc12 | 84.3 µg/mL | –
25 | CCc1ccc2c(c1)N(CCO)C1=C(C(=O)OC1)C2c1cc(OC)c(OC)c(OC)c1 (stereo not given) | 188 nM | 1770
26 | Cc1ccc(C2CC(c3ccc(Nc4ccnc5cc(Cl)ccc45)cc3)=NN2C=O)cc1 (stereo not given) | 25200 nM | > 100000
27 | COCC(C(=O)OC1C/C=C/C=C/C(=O)OC(C(C)C(O)C(C)CCC(OC(=O)C(C)N(C)C)C(C)C(OC(C)=O)C(C)/C=C/N(C)C=O)C/C=C/C(OC)CC(C)C/C=C(\C)C(OC)CCC(C)C(O)C1C)N(C)C (stereo not given) | < 0.1 nM | 6.87

tested on: A498 renal; assay: inhibition of tumour cell growth, NCI panel, 48 h

Row | Compound | GI50 | TGI [nM]
28 | Nc1nccc2c([N+](=O)[O-])cccc12 | 31.7 µg/mL | –
29 | CCc1ccc2c(c1)N(CCO)C1=C(C(=O)OC1)C2c1cc(OC)c(OC)c(OC)c1 (stereo not given) | 103 nM | 932
30 | COCC(C(=O)OC1C/C=C/C=C/C(=O)OC(C(C)C(O)C(C)CCC(OC(=O)C(C)N(C)C)C(C)C(OC(C)=O)C(C)/C=C/N(C)C=O)C/C=C/C(OC)CC(C)C/C=C(\C)C(OC)CCC(C)C(O)C1C)N(C)C (stereo not given) | < 0.1 nM | < 0.1

tested on: SW-620 colon; assay: inhibition of tumour cell growth, NCI panel, 48 h

Row | Compound | GI50 [nM] | TGI [nM]
31 | CCc1ccc2c(c1)N(CCO)C1=C(C(=O)OC1)C2c1cc(OC)c(OC)c(OC)c1 (stereo not given) | 168 | > 50000
32 | Cc1ccc(C2CC(c3ccc(Nc4ccnc5cc(Cl)ccc45)cc3)=NN2C=O)cc1 (stereo not given) | > 100000 | > 100000
33 | COCC(C(=O)OC1C/C=C/C=C/C(=O)OC(C(C)C(O)C(C)CCC(OC(=O)C(C)N(C)C)C(C)C(OC(C)=O)C(C)/C=C/N(C)C=O)C/C=C/C(OC)CC(C)C/C=C(\C)C(OC)CCC(C)C(O)C1C)N(C)C (stereo not given) | < 0.1 | > 1000

tested on: SK-MEL-5 melanoma; assay: inhibition of tumour cell growth, NCI panel, 48 h

Row | Compound | GI50 [nM] | TGI [nM]
34 | Cn1cnnc1[S-].[Au+].c1ccc([PH+](c2ccccc2)c2ccccc2)cc1 | 1460 | 2910
35 | CCc1ccc2c(c1)N(CCO)C1=C(C(=O)OC1)C2c1cc(OC)c(OC)c(OC)c1 (stereo not given) | 126 | 581
36 | Cc1ccc(C2CC(c3ccc(Nc4ccnc5cc(Cl)ccc45)cc3)=NN2C=O)cc1 (stereo not given) | 1740 | > 100000
37 | COCC(C(=O)OC1C/C=C/C=C/C(=O)OC(C(C)C(O)C(C)CCC(OC(=O)C(C)N(C)C)C(C)C(OC(C)=O)C(C)/C=C/N(C)C=O)C/C=C/C(OC)CC(C)C/C=C(\C)C(OC)CCC(C)C(O)C1C)N(C)C (stereo not given) | < 0.1 | 1.44

tested on: SR leukemia; assay: inhibition of tumour cell growth, NCI panel, 48 h

Row | Compound | GI50 | TGI [nM]
38 | Nc1nccc2c([N+](=O)[O-])cccc12 | 25.7 µg/mL | –
39 | CCc1ccc2c(c1)N(CCO)C1=C(C(=O)OC1)C2c1cc(OC)c(OC)c(OC)c1 (stereo not given) | 187 nM | > 50000
40 | Cc1ccc(C2CC(c3ccc(Nc4ccnc5cc(Cl)ccc45)cc3)=NN2C=O)cc1 (stereo not given) | 3180 nM | 10200
41 | COCC(C(=O)OC1C/C=C/C=C/C(=O)OC(C(C)C(O)C(C)CCC(OC(=O)C(C)N(C)C)C(C)C(OC(C)=O)C(C)/C=C/N(C)C=O)C/C=C/C(OC)CC(C)C/C=C(\C)C(OC)CCC(C)C(O)C1C)N(C)C (stereo not given) | < 0.1 nM | 3.41

tested on: SF-295 CNS; assay: inhibition of tumour cell growth, NCI panel, 48 h

Row | Compound | GI50 [nM] | TGI [nM]
42 | Cn1cnnc1[S-].[Au+].c1ccc([PH+](c2ccccc2)c2ccccc2)cc1 | 1850 | 3820
43 | CCc1ccc2c(c1)N(CCO)C1=C(C(=O)OC1)C2c1cc(OC)c(OC)c(OC)c1 (stereo not given) | 126 | 469
44 | Cc1ccc(C2CC(c3ccc(Nc4ccnc5cc(Cl)ccc45)cc3)=NN2C=O)cc1 (stereo not given) | 4000 | > 100000
45 | COCC(C(=O)OC1C/C=C/C=C/C(=O)OC(C(C)C(O)C(C)CCC(OC(=O)C(C)N(C)C)C(C)C(OC(C)=O)C(C)/C=C/N(C)C=O)C/C=C/C(OC)CC(C)C/C=C(\C)C(OC)CCC(C)C(O)C1C)N(C)C (stereo not given) | < 0.1 | < 0.1

tested on: DU-145 prostate; assay: inhibition of tumour cell growth, NCI panel, 48 h

Row | Compound | GI50 [nM] | TGI [nM]
46 | Cn1cnnc1[S-].[Au+].c1ccc([PH+](c2ccccc2)c2ccccc2)cc1 | 1340 | 2660
47 | CCc1ccc2c(c1)N(CCO)C1=C(C(=O)OC1)C2c1cc(OC)c(OC)c(OC)c1 (stereo not given) | 174 | 856
48 | Cc1ccc(C2CC(c3ccc(Nc4ccnc5cc(Cl)ccc45)cc3)=NN2C=O)cc1 (stereo not given) | > 100000 | > 100000
49 | COCC(C(=O)OC1C/C=C/C=C/C(=O)OC(C(C)C(O)C(C)CCC(OC(=O)C(C)N(C)C)C(C)C(OC(C)=O)C(C)/C=C/N(C)C=O)C/C=C/C(OC)CC(C)C/C=C(\C)C(OC)CCC(C)C(O)C1C)N(C)C (stereo not given) | < 0.1 | 0.156

tested on: 786-0 renal; assay: inhibition of tumour cell growth, NCI panel, 48 h

Row | Compound | GI50 [nM] | TGI [nM]
50 | Cn1cnnc1[S-].[Au+].c1ccc([PH+](c2ccccc2)c2ccccc2)cc1 | 1720 | 3150
51 | CCc1ccc2c(c1)N(CCO)C1=C(C(=O)OC1)C2c1cc(OC)c(OC)c(OC)c1 (stereo not given) | 245 | > 14500
52 | Cc1ccc(C2CC(c3ccc(Nc4ccnc5cc(Cl)ccc45)cc3)=NN2C=O)cc1 (stereo not given) | 50900 | > 100000

From PubChem BioAssay (NCI)
